Data on 1 compound can be found in patent publication US20260069696A1, “Combined therapy of photodynamic therapy and immune checkpoint inhibitor” (Shanghai Guang Sheng Pharmaceutical Co., Ltd., priority 2023, published 2026).

Each structure is given as a SMILES string.

The test system of the assay is human esophageal cancer Eca-109 nude mouse xenograft tumor. Kind of assay: Efficacy of DVDMS-PDT combined with PD-1 antibody in mouse model of human esophageal cancer Eca-109. The note with it: Only received DVDMS-PDT, DVDMS 2 mg/kg, laser 70 J/cm2, Day 21. Type of assay: in vivo, nu/nu nude mice. The text has this:
Example 1. Efficacy of combined therapy of sodium porphyrine-mediated photodynamic therapy (DVDMS-PDT) with PD-1 antibody in a mouse model of human esophageal cancer Eca-109
Purpose: observe the growth-inhibiting effect of DVDMS-PDT combined with PD-1 antibody (Pembrolizumab) on human esophageal cancer Eca-109 nude mouse xenograft tumor, optimize the time window between DVDMS-PDT and PD-1 antibody treatment, and provide a reference for clinical application.
Harvest human esophageal cancer Eca-109 cells at logarithmic growth phase and dilute with culture medium to a cell concentration of 5*10^7 cells/mL, and inoculate subcutaneously at the right thigh root of nude mice at an injection of 0.1 mL per nude mouse. And 7-10 days later, grow the subcutaneous tumor at the root of the thigh on the right side of the nude mouse until the diameter is about 5-8 mm for later use.
Select qualified tumor-bearing mouse models as described above, measure the length and the width of the tumors using a vernier caliper, and stratify and group the mice according to tumor size, with 6 mice in each group. Prepare the sodium porphyrine DVDMS-2 for injection 24 hours before the experiment, and refrigerate in the dark before use. Administer DVDMS-2 via tail vein at a dose of 2 mg/kg body weight (Day-1), followed by PDT treatment 24 hours later (Day 0). […]

With `C=CC1=C(C)c2cc3[nH]c(cc4nc(cc5[nH]c(cc1n2)c(C)c5C(C)OC(C)C1=C(C)c2cc5[nH]c(cc6nc(cc7[nH]c(cc1n2)c(C)c7CCC(=O)[O-])C(CCC(=O)[O-])=C6C)c(C)c5C=C)C(C)=C4CCC(=O)[O-])c(CCC(=O)[O-])c3C.[Na+].[Na+].[Na+].[Na+]` (centres unmarked) [DVDMS-PDT, bis [1-[6,7-sodium dipropionate-1,3,5,8-tetramethyl-2-vinyl-4-porphine]ethyl]ether], the “Tumor growth inhibition rate(%)” value was found to be 66.8%. Also, the Tumor weight (in g (unit assumed)) came to 0.43 ± 0.58.
